From patent US20150157659A1, “METHOD OF INDUCING AUTOPHAGY AND ACTIVATING TOLL-LIKE RECEPTOR” (National Tsing Hua University, priority 2013, published 2015)

Experiments:
RAW 264.7 cells [1] = assay: Cell death and TUNEL apoptosis of treated macrophages; format: cell-based; conditions: LPS 10 μg/ml
RAW 264.7 cells [2] = assay: Immunofluorescence microscopy for Beclin 1 and LC3; format: cell-based, mouse
Method: The cells were fixed and permeabilized as described previously, followed by extensive washing and primary antibody staining (1:100 dilution) for 1 h at 4° C. in the dark. The primary antibody was specific for LC3 (4108, Cell Signaling Technology), Beclin 1 (ab55878, Abcam), TLR4 (14-9924, eBioscience), TLR9 (ab17236, abcam), MyD88 (ab2068, abcam), TRAF6 (ab33915, abcam), phosphorylated NF-κB (3033, Cell Signaling Technology) or IRF3 (sc-15991, Santa Cruz Biotechnology). After washing, the cells were incubated with the goat anti-mouse antibody conjugated with Alexa 488 (for TLR9, Invitrogen), goat anti-rabbit antibody conjugated with Alexa 488 (for LC3, MyD88, TRAF6 and NF-κB, Invitrogen) or donkey anti-goat IgG conjugated with Dylight 488 (for IRF3, Jackson ImmunoResearch) for 1 h at 4° C. in the dark. After washing, the cells were counterstained with 4,6-diamidino-2-phenylindole (DAPI, Vector Labs) and visualized with a confocal microscope (Nikon TE2000 equipped with the confocal upgrade laser kit). Fifty to one hundred cells in the images for LC3 were counted for quantification of LC3+ cells.
Beclin 1 and LC3 are two key proteins associated with the autophagy pathway and are common indicators of autophagy induction. […]

RAW264.7 = assay: Cell morphology and vacuoles under phase contrast microscope after GO treatment; format: cell-based, mouse; conditions: LPS 10 μg/ml, 24 h
Method: The mouse macrophage cell line RAW264.7 was maintained in Dulbecco's modified Eagles medium (DMEM, Gibco) containing 10% fetal bovine serum (FBS, Gibco) and subcultured upon 70-80% confluency. For GO treatment, the cells were seeded to 6-well plates (3×10^5 cells/cm^2) overnight and cultured using the medium supplemented with GO at final concentrations of 5 or 100 μg/ml for 24 h. In parallel, the cells were treated with LPS (10 μg/ml, Sigma) for 24 h as the positive control. After the treatment, the cell morphology and vacuoles were observed under the phase contrast microscope.
To examine how GO nanosheets influenced the macrophage, RAW 264.7 cells were incubated with small GO at either 5 μg/ml (designated as GO5 group) or 100 μg/ml (designated as GO100 group) for 24 h.

RAW 264.7 cells [3] = assay: Transmission electron microscopy of autophagic vacuoles; format: cell-based, mouse; conditions: LPS 10 μg/ml
Method: The cells were harvested, centrifuged (215×g, 10 min), washed with cold PBS and fixed with 2.5% glutaraldehyde (in 0.2 M sodium cacodylate, pH 7.4). The samples were then fixed in 1% OsO4 for 1 h at 4° C., dehydrated with increasing concentrations of ethanol, embedded in spur resin and sectioned. The ultrathin sections were stained with uranyl acetate and observed under the TEM.

RAW 264.7 cells [4] = assay: ELISA of cytokines in supernatant of treated macrophage cells; format: cell-based, mouse; conditions: LPS
Method: At 24 h post-treatment, the supernatant was collected from the GO-treated cell culture and analyzed using ELISA kits specific for mouse IL-2, IL-10, TNF-α, IFN-β and IFN-γ. The cells were lysed for Western blot using primary antibodies (1:1000 dilution) specific for LC3, Beclin 1 or β-actin (A-2066, Sigma) and the secondary antibody was HRP-conjugated IgG (1:5000 dilution, Amersham Biosciences). The images were developed using the GeneGnome HR scanner (Syngene).

Molecule | cell death (RAW 264.7 cells [1]) | Beclin 1 and LC3 dots by immunofluorescence (RAW 264.7 cells [2]; LPS-treated cells) | formation of vacuoles inside the cells (RAW264.7) | autophagic vacuoles (AV) by TEM (RAW 264.7 cells [3]) | cytokine secretion (RAW 264.7 cells [4]) | GO100-triggered formation of LC3+ aggregate dots (RAW 264.7 cells [2]; pre-treatment of cells with the autophagy inhibitor)
lipopolysaccharides [LPS] | also observed in the LPS-treated cells | also observed in the LPS-treated cells | also observed in the LPS-treated cells | triggered more prominent AV | cytokine secretion triggered by LPS | –
Cn1cnc(N)c2ncnc1-2 [3-MA, 3-methyl adenine] | – | – | – | – | – | diminished the GO100-triggered formation of LC3+ aggregate dots
